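Dose response: 5 concentrations. Exposure: 48 h. Format: 96-well plates. Endpoint: linear interpolation; highest concentration if not reached. At the GI50, growth is halved. TGI marks complete inhibition of growth.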
What was measured:
Assay in all cases: NCI tumour cell line growth inhibition, 48 h
SK-MEL-2 melanoma = system: SK-MEL-2 melanoma
OVCAR-8 ovarian = system: OVCAR-8 ovarian
IGROV1 ovarian = system: IGROV1 ovarian
COLO 205 colon = system: COLO 205 colon
NCI-H23 lung = system: NCI-H23 lung
PC-3 prostate = system: PC-3 prostate
MOLT-4 leukemia = system: MOLT-4 leukemia
SF-268 CNS = system: SF-268 CNS
786-0 renal = system: 786-0 renal
RPMI-8226 leukemia = system: RPMI-8226 leukemia

SMILES	TGI (SK-MEL-2 melanoma)	TGI (OVCAR-8 ovarian)	TGI (IGROV1 ovarian)	TGI (COLO 205 colon)	TGI (NCI-H23 lung)	TGI (PC-3 prostate)	TGI (MOLT-4 leukemia)	TGI (SF-268 CNS)	TGI (786-0 renal)	TGI (RPMI-8226 leukemia)	GI50 (SK-MEL-2 melanoma)	GI50 (OVCAR-8 ovarian)	GI50 (IGROV1 ovarian)	GI50 (COLO 205 colon)	GI50 (NCI-H23 lung)	GI50 (PC-3 prostate)	GI50 (MOLT-4 leukemia)	GI50 (SF-268 CNS)	GI50 (786-0 renal)	GI50 (RPMI-8226 leukemia)
C=CC1(C)CCC2C(=CCC3C2(C)CC(O)C(O)C3(C)COC2OC(CO)C(O)C(O)C2O)C1 (stereo unspecified)	> 100 µM	> 100 µM	> 100 µM	> 100 µM	> 100 µM	> 100 µM	> 100 µM	> 100 µM	> 100 µM	–	–	–	–	–	–	–	–	–	–	–
O=S1OC(c2ccccc2)(c2ccccc2)C(c2ccccc2)(c2ccccc2)O1	–	> 100 µM	> 100 µM	> 100 µM	> 100 µM	–	> 100 µM	> 100 µM	> 100 µM	> 49.4 µM	–	–	–	–	–	–	–	–	–	–
C/C(CN1C(=O)c2ccccc2C1=O)=N\NS(=O)(=O)c1ccc2ccccc2c1	> 100 µM	> 100 µM	> 100 µM	> 100 µM	> 100 µM	–	> 100 µM	> 100 µM	> 100 µM	> 100 µM	–	–	–	–	–	–	–	–	–	–
Nc1c(C(=O)Nc2cccc(Cl)c2)sc2nc3c(cc12)C(=O)CCC3	> 100 µM	> 100 µM	> 100 µM	–	> 100 µM	> 100 µM	> 100 µM	> 100 µM	> 100 µM	–	0.488 µM	> 41.3 µM	2.28 µM	0.288 µM	0.751 µM	0.528 µM	> 100 µM	> 45.4 µM	0.739 µM	–
C=CCC1(O)c2ccccc2C(=O)c2c(OCC(=O)OCC)ccc(OCC(=O)OCC)c21 (stereo unspecified)	> 100 µM	> 100 µM	> 100 µM	> 100 µM	> 100 µM	> 100 µM	> 100 µM	> 100 µM	> 100 µM	> 100 µM	> 100 µM	> 100 µM	> 100 µM	> 100 µM	> 100 µM	> 100 µM	51 µM	> 100 µM	> 100 µM	89 µM
O=C(CCc1n[nH]c(=S)o1)Nc1cc(Cl)ccc1Cl	–	> 100 µM	> 100 µM	> 100 µM	> 100 µM	–	> 100 µM	> 100 µM	99.2 µM	46.3 µM	–	–	–	–	–	–	–	–	–	–
COc1cccc2c1nc(C(F)F)n2-c1nc(-c2ccc(NS(=O)(=O)CCN(C)C)cc2)nc(N2CCOCC2)n1	2.5 µM	> 41.1 µM	0.154 µM	2.64 µM	23.3 µM	12.9 µM	3.71 µM	13.3 µM	2.76 µM	2.41 µM	0.195 µM	0.295 µM	0.0261 µM	0.0908 µM	0.206 µM	0.0923 µM	0.123 µM	0.157 µM	0.231 µM	0.272 µM
O=c1[nH]c2ccccc2n1C1CCNCC1	> 100 µM	> 100 µM	> 100 µM	> 100 µM	> 100 µM	> 100 µM	> 100 µM	> 100 µM	> 100 µM	> 100 µM	> 100 µM	> 100 µM	> 100 µM	> 100 µM	> 100 µM	> 100 µM	> 100 µM	> 100 µM	> 100 µM	> 100 µM

Reference: PubChem BioAssay (NCI)
